The values that follow come from PubChem BioAssay (NCI).

Structures are written as SMILES. Several values for one entry are separate records, joined by “and”; a condition that tells them apart may be missing. Equal values may be shown once.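 Compound exposure: 48 hours, 5 concentrations, 96-well plates. GI50 is the concentration that inhibits growth by half. At the TGI there is no net growth.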

What all share (experiment): growth of human tumour cells (NCI), 48 h
Test [1] has as its system 786-0 renal.
The subject of test [2] is UACC-62 melanoma.
Test [3] relates to M14 melanoma.
Test [4] deals with HOP-92 NSCLC.
The subject of test [5] is PC-3 prostate.
Test [6] deals with KM12 colon.
In test [7] the test system is SK-MEL-2 melanoma.
Test [8] concerns SNB-19 CNS.
Test [9] has as its system T-47D breast.
Test [10] concerns BT-549 breast.

For the molecule `Nc1nccc(Nc2ccc(S(N)(=O)=O)cc2)n1`, the TGI in test [1], in [2], in [3], in test [4], in test [5] and in test [6] was over 100 µM throughout. In addition, the TGI in test [7], in test [8], in [9] and in test [10] was over 100 µM throughout.

Regarding `CC(=O)OCC1OC(S[As](C)C)C(OC(C)=O)C1OC(C)=O` (configuration not stated), the GI50 was 176 nM in test [1]; 357 nM in test [2]; 193 nM in test [3]; 328 nM in [4]; 1110 nM in test [5]; 2000 nM in [6]. In addition, the GI50 in [7] is 1200 nM; in [8], 9.06 µM; in test [9], 620 nM; in test [10], 645 nM. The TGI in test [1] came out at 0.77 µM; in test [2] it was 1.52 µM; in test [3], 0.726 µM; in test [4] it was 2.57 µM; in test [5] it was 13.1 µM; in [6], 13.6 µM. The TGI is 7.82 µM in [7], 29.5 µM in test [8], 17.3 µM in test [9] and 2.87 µM in test [10].

Take `COc1ccc(Nc2ccnc(NCCCNc3ccnc4cc(Cl)ccc34)n2)cc1`: the GI50 is 1490 nM in [1]; 1400 nM in test [2]; 196 nM in [3]; 632 nM in [4]; 1630 nM in test [5]; 1670 nM in test [6]. Moreover, the GI50 in [7] was 1610 nM; in [8], 2.61 µM; in test [9] it was 1550 nM; in [10], 1650 nM. Also, the TGI in [1] was 2.93 µM; in test [2] it was 2.96 µM; in [3], 0.461 µM; in [4], 2.65 µM; in [5], 11.2 µM; in test [6], 3.73 µM. Moreover, the TGI turned out to be 3.21 µM in test [7], 10.1 µM in test [8], 3.71 µM in test [9] and 3.94 µM in test [10].

In the case of `CC[C@H](C)C(=O)O[C@H]1CCC=C2C=C[C@H](C)C(CCC3C[C@@H](O)CC(=O)O3)[C@H]21` (some centres not stated), the GI50 in test [1] was 8710 nM; in test [2], 4750 nM; in test [4] it was 236 nM; in test [5], 1480 nM; in [6], 45600 nM; in test [7], 6980 nM. The GI50 in test [8] is 18.4 µM; in [10], 17200 nM. The TGI in test [1] was over 100 µM; in [2], 61.9 µM; in [3], over 100 µM; in test [4] it was 5.59 µM; in [5], over 100 µM; in test [6] it was over 100 µM. Also, the TGI in test [7], in [8], in test [9] and in test [10] was over 100 µM throughout.

Turning to `COC(=O)[C@@H](C)C[C@H](Cc1ccccc1)NC(=O)c1csc([C@@H](C[C@H](C(C)C)N(C)C(=O)[C@@H](NC(=O)[C@H]2CCCCN2C)C(C)C)OC(C)=O)n1`, the GI50 in test [1] was 0.331 nM and 2.5 nM; in [3] it was 0.134 nM; in test [4], 0.692 nM and < 2.5 nM; in test [7], 0.256 nM; in test [9], over 25000 nM; in [10], 0.284 nM and < 2.5 nM. For the same molecule, the TGI in test [1] was 24.5 µM; in test [2], over 25 µM; in test [3] it was 0.000531 µM; in test [5], over 25 µM; in [6] it was over 25 µM; in test [8] it was over 25 µM. Moreover, the TGI in [9] is over 25 µM; in [10] it was 0.0183 µM and < 0.0025 µM.

`NC(=O)Oc1cc(OC(N)=O)cc(N(CCCl)CCCl)c1`: the GI50 in test [1] is 4280 nM; in test [2] it was 4100 nM; in test [3], 5740 nM; in test [4] it was 849 nM; in test [5], 7100 nM; in test [6], 14100 nM. In addition, the GI50 was 15600 nM in test [7], 10.6 µM in test [8], 7780 nM in [9] and 7930 nM in test [10]. Moreover, the TGI in [1] was 22.8 µM; in test [2] it was 18.4 µM; in [3], 30.9 µM; in [4], 7.87 µM; in test [5], 54.8 µM; in test [6], 36.7 µM. Besides, the TGI in test [7] is 47.8 µM; in test [8], over 100 µM; in [9] it was over 100 µM; in [10], 30.7 µM.

Turning to `O=C1/C(=C/C(Cl)=C/c2ccccc2)SC(=S)N1CCc1ccc(O)cc1`, the GI50 in test [1] is 2190 nM; in [2] it was 1330 nM; in test [3], 2420 nM; in test [4], 3180 nM; in test [5], 2100 nM; in test [6], 1490 nM. Besides, the GI50 in test [7] is 2560 nM; in test [8] it was 1.51 µM; in [9], 2020 nM; in test [10] it was 3440 nM. For the same molecule, the TGI was found to be 4.92 µM in [1]; 3.04 µM in test [2]; 9.7 µM in [3]; 21.6 µM in [4]; 7.42 µM in [5]; 3.03 µM in test [6]. Besides, the TGI in [7] was 7.42 µM; in test [8] it was 2.95 µM; in test [9], 5.61 µM; in test [10] it was over 100 µM.

For `CC(C)(O)[C@H]1[C@@H]2OC(=O)[C@H]1[C@]1(O)C[C@H]3OC34C(=O)O[C@H]2[C@@]41C` (some centres not stated) (tested in a mixture with another compound), the TGI in test [1], in [2], in test [3], in test [4], in test [5] and in test [6] was over 100 µM in each case. For the same molecule, the TGI in [7], in [8], in test [9] and in test [10] was over 100 µM each time.
